Results on eight molecules are retold here after ChEMBL document CHEMBL1201862, “PubChem BioAssay data set” (2004).

Among the test systems are 786-0; CCRF-CEM; DU-145; EKVX; HCC 2998; HCT-15; KM12; MDA-MB-435; NCI-H23; OVCAR-4; OVCAR-5; OVCAR-8; RPMI-8226; SF-295; SK-MEL-2; SK-MEL-5; TK-10; K562; NCI-H460; SN12C.
Common to all, as to assay: NCI-60 cell line screen, 48 h

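These data come from cells grown in 96-well plates and exposed to compound for 48 hours at five concentrations. The concentration for 50% growth inhibition is given as GI50.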 Calls of active or inactive are those of the source. No stated cut-off is given here; in the data, active = GI50 up to about 1.1 µM and inactive = higher. Bounds are passed on as bounds.

As for `N=c1c2sc3nc4ccccc4n3c2ncn1Cc1ccccc1`, the GI50 with 786-0 was > 100 µM (inactive); in the assay on CCRF-CEM, > 100 µM (inactive); in the assay on DU-145 it was > 100 µM (inactive); with EKVX, > 100 µM (inactive); in the assay with HCC 2998, > 100 µM (inactive); in the assay with HCT-15, greater than 100 µM. The GI50 with KM12 was 0.957 µM (active); in the assay on MDA-MB-435, > 100 µM (inactive); in the assay on NCI-H23, > 100 µM (inactive); with OVCAR-4 it was > 100 µM (inactive); with OVCAR-5, > 100 µM (inactive); in the assay on OVCAR-8, > 100 µM (inactive). The GI50 is > 100 µM (inactive) in the assay with RPMI-8226; > 100 µM (inactive) in the assay on SF-295; > 100 µM (inactive) in the assay on SK-MEL-2; > 100 µM (inactive) in the assay with SK-MEL-5; 84.3 µM (inactive) with TK-10.

As to `O=C(/C=C/c1cccs1)c1ccc([N+](=O)[O-])cc1`, the GI50 in the assay on 786-0 was > 100 µM (inactive); with CCRF-CEM, > 100 µM (inactive); with DU-145, > 100 µM (inactive); in the assay with EKVX it was > 100 µM (inactive); in the assay on HCC 2998 it was > 100 µM (inactive); in the assay on HCT-15, greater than 100 µM. In addition, the GI50 was 66.1 µM (inactive) in the assay on K562; 71.9 µM (inactive) in the assay on KM12; > 100 µM (inactive) with MDA-MB-435; > 100 µM (inactive) with NCI-H23; > 100 µM (inactive) in the assay with NCI-H460; > 100 µM (inactive) in the assay on OVCAR-4. Further, the GI50 was > 100 µM (inactive) with OVCAR-8; 49.4 µM (inactive) in the assay with RPMI-8226; 90.8 µM (inactive) in the assay on SF-295; > 100 µM (inactive) in the assay on SK-MEL-2; > 100 µM (inactive) in the assay on SK-MEL-5; > 100 µM (inactive) with SN12C. Moreover, the GI50 in the assay on TK-10 was > 100 µM (inactive).

For the molecule `CCCCCCCCCCC(C(=O)O)C1(C(=O)O)CCC(=O)O1` (stereo not drawn), the GI50 in the assay on 786-0 was > 100 µM (inactive); in the assay with CCRF-CEM it was > 100 µM (inactive); in the assay with DU-145, > 100 µM (inactive); in the assay on EKVX, > 100 µM (inactive); with HCC 2998, > 100 µM (inactive); in the assay on HCT-15 it was greater than 100 µM. Moreover, the GI50 was > 100 µM (inactive) with K562; > 100 µM (inactive) in the assay on KM12; > 100 µM (inactive) in the assay on MDA-MB-435; > 100 µM (inactive) in the assay on NCI-H23; > 100 µM (inactive) in the assay on NCI-H460; 43.2 µM (inactive) with OVCAR-4. Moreover, the GI50 with OVCAR-5, in the assay with OVCAR-8, in the assay with RPMI-8226, in the assay with SF-295, with SK-MEL-2 and in the assay with SN12C was > 100 µM (inactive) each time. Besides, in the assay on TK-10, the GI50 is > 100 µM (inactive).

On to `CSc1ccc(/C=C2\N=C(c3ccccc3)N(/N=C/c3cc4cc(C)ccc4nc3Cl)C2=O)cc1`, for which the GI50 in the assay on 786-0 is 17.9 µM (inactive); in the assay with CCRF-CEM it was 12 µM (inactive); in the assay with DU-145, 17.8 µM (inactive); with EKVX, 32.4 µM (inactive); in the assay with HCC 2998, 16 µM (inactive); with HCT-15, 23.3 µM. The GI50 is 22 µM (inactive) in the assay with K562; 14.3 µM (inactive) in the assay with KM12; 8.15 µM (inactive) in the assay with MDA-MB-435; 20.7 µM (inactive) in the assay with NCI-H460; 17.1 µM (inactive) with OVCAR-4; 22.9 µM (inactive) in the assay on OVCAR-5. Besides, the GI50 is 16.1 µM (inactive) in the assay on OVCAR-8; 27.6 µM (inactive) in the assay on RPMI-8226; 17.9 µM (inactive) in the assay with SF-295; 16.8 µM (inactive) with SK-MEL-2; 16.1 µM (inactive) with SK-MEL-5; 17.7 µM (inactive) in the assay with SN12C. Further, the GI50 in the assay with TK-10 is 16.9 µM (inactive).

As for `Cc1cc(S(=O)(=O)N/C(=N/N)NCCc2ccccc2)c(S)cc1Cl`, the GI50 with 786-0 was 30.5 µM (inactive); in the assay on CCRF-CEM, 25.1 µM (inactive); with DU-145 it was 18.5 µM (inactive); in the assay with EKVX it was 34.8 µM (inactive); with HCC 2998, 23.2 µM (inactive); with HCT-15, 19.2 µM. Also, the GI50 in the assay with K562 is 30.6 µM (inactive); with KM12, 23.4 µM (inactive); in the assay with MDA-MB-435, 22 µM (inactive); in the assay on OVCAR-4, 22.9 µM (inactive); with OVCAR-5 it was 19.5 µM (inactive); in the assay with OVCAR-8, 18.9 µM (inactive). For the same molecule, the GI50 in the assay with RPMI-8226 is 32.7 µM (inactive); with SK-MEL-2 it was 38.2 µM (inactive); in the assay on SK-MEL-5, 19.2 µM (inactive); in the assay on SN12C, 33.5 µM (inactive); with TK-10, 39.4 µM (inactive).

As to `N#CC(NCc1cccc(CNC(C#N)c2ccccc2)c1)c1ccccc1` (stereo not drawn), the GI50 was 35.6 µM (inactive) with 786-0; 18.1 µM (inactive) in the assay on CCRF-CEM; > 100 µM (inactive) in the assay with DU-145; 60 µM (inactive) in the assay with EKVX; 14.9 µM (inactive) in the assay on HCC 2998; 25.8 µM in the assay on HCT-15. Also, the GI50 in the assay with K562 was 17.1 µM (inactive); with KM12 it was 22.3 µM (inactive); with MDA-MB-435, 99.8 µM (inactive); with NCI-H23, > 100 µM (inactive); in the assay on OVCAR-4, 56 µM (inactive); in the assay with OVCAR-5, > 100 µM (inactive). Moreover, the GI50 was 67 µM (inactive) in the assay on OVCAR-8; 21.1 µM (inactive) in the assay on RPMI-8226; 18.7 µM (inactive) in the assay on SF-295; > 100 µM (inactive) in the assay on SK-MEL-2; 42.3 µM (inactive) in the assay with SK-MEL-5; 77.8 µM (inactive) with SN12C. In the assay on TK-10, the GI50 was 46.2 µM (inactive).

Take `O=C1CCC(=O)N1n1c(Cc2ccccc2)n[nH]c1=O`: the GI50 with 786-0 is > 100 µM (inactive); in the assay with CCRF-CEM it was > 100 µM (inactive); in the assay with DU-145, > 100 µM (inactive); in the assay with EKVX it was > 100 µM (inactive); in the assay with HCC 2998, > 100 µM (inactive); in the assay on HCT-15, greater than 100 µM. For the same molecule, the GI50 in the assay with K562 was > 100 µM (inactive); in the assay with KM12, 7.29 µM (inactive); in the assay with MDA-MB-435, > 100 µM (inactive); with NCI-H460, > 100 µM (inactive); in the assay on OVCAR-4 it was > 100 µM (inactive); in the assay on OVCAR-5 it was > 100 µM (inactive). The GI50 with OVCAR-8, in the assay with RPMI-8226, with SF-295, with SK-MEL-2, with SK-MEL-5 and with SN12C was > 100 µM (inactive) throughout. For the same molecule, the GI50 in the assay on TK-10 was > 100 µM (inactive).

For the molecule `O=[N+]([O-])c1ccc(N2N=C(c3c(O)ccc4ccccc34)CC2c2ccc(Cl)cc2)c([N+](=O)[O-])c1` (stereo not drawn), the GI50 is 27.9 µM (inactive) with 786-0; 11.1 µM (inactive) with CCRF-CEM; 19.5 µM (inactive) in the assay on DU-145; 28.6 µM (inactive) with HCC 2998; 14 µM in the assay on HCT-15; 5.28 µM (inactive) in the assay with K562. For the same molecule, the GI50 with KM12 was 5.65 µM (inactive); in the assay on MDA-MB-435, 25.6 µM (inactive); with NCI-H23 it was 19.1 µM (inactive); in the assay with NCI-H460, 29.9 µM (inactive); with OVCAR-4, 64.9 µM (inactive); in the assay on OVCAR-5, 17.1 µM (inactive). Also, the GI50 with OVCAR-8 was 21.7 µM (inactive); in the assay with RPMI-8226 it was 15.3 µM (inactive); with SF-295, 4.59 µM (inactive); in the assay with SK-MEL-2, 17.8 µM (inactive); with SK-MEL-5, 20.4 µM (inactive); in the assay with SN12C it was 33.4 µM (inactive). In addition, in the assay with TK-10, the GI50 is 41 µM (inactive).
